In US10947242B2, “[1,2,4]triazolo[1,5and#8208;A]pyrimidine compounds as PDE2 inhibitors” (Janssen Pharmaceutica NV, priority 2016, dated 2021):
Where two headings read alike, the source gives them in different places.

Tests used:
[1] = biological target: T1, Human recombinant PDE2A (hPDE2A) (Homo sapiens, UniProt O00408); assay: In vitro assay PDE2A (SPA, 3H-cGMP hydrolysis); format: biochemical; conditions: for Emax: read-out: hPDE2A Emax
T1 construct: His tag (inferred from metal chelate purification); made in house; host or cells: Sf9 insect cells (baculovirus)

[2] = biological target: T2, Human recombinant PDE3A (hPDE3A) (Homo sapiens, UniProt Q14432); assay: In vitro assay PDE3A (SPA, 3H-cAMP hydrolysis); format: biochemical; conditions: for IC50: hPDE3B pIC50, read-out: pIC50 (converted); for Emax: read-out: hPDE3B Emax;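 for all read-outs here: the method names PDE3A and the table heading PDE3B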
T2 construct: purchased Scottish Biomedical; host or cells: Sf9 insect cells
Method in brief: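 Radiometric SPA measuring [3H]-cAMP hydrolysis (0.4 μM cAMP, 2.4 μCi/ml) over 60 min at room temperature, in Tris pH 7.8 buffer with MgCl2 and EGTA, 1% DMSO. Enzyme: recombinant human brain PDE3A expressed in Sf9 cells, used as partially purified lysate. Counts compared with enzyme-free blanks and vehicle controls.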

[3] = biological target: T3, Human recombinant PDE10A (hPDE10A) (Homo sapiens, UniProt Q9Y233); assay: In vitro assay PDE10A, human clone (SPA, 3H-cAMP hydrolysis); format: biochemical
T3 construct: His tag (inferred from metal chelate purification); made in house; host or cells: Sf9 insect cells (baculovirus)
Method in brief: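 Hydrolysis of 3H-cAMP (60 nM cAMP, 0.008 μCi tracer) proceeded for 60 min at room temperature, with the product detected by SPA bead scintillation counting. The enzyme was hPDE10A from baculovirus-infected Sf9 cells in Tris pH 7.8 buffer with MgCl2 and EGTA, and compounds were at 1% DMSO final. Blanks lacked enzyme.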

[4] = biological target: T4, PDE2A (Rattus norvegicus, UniProt Q01062); assay: PDE2 occupancy by test compounds, ex-vivo autoradiography with [3H]B-17a; format: in vivo, Male Wistar rats; conditions: for receptor occupancy at 10 mg/kg: percentage receptor occupancy, ex-vivo autoradiography, striatum
T4 construct: Twenty μm-thick striatal sections were cut; from tissue; host or cells: rat brain, striatal sections
T4 sequence (Q01062 1-928): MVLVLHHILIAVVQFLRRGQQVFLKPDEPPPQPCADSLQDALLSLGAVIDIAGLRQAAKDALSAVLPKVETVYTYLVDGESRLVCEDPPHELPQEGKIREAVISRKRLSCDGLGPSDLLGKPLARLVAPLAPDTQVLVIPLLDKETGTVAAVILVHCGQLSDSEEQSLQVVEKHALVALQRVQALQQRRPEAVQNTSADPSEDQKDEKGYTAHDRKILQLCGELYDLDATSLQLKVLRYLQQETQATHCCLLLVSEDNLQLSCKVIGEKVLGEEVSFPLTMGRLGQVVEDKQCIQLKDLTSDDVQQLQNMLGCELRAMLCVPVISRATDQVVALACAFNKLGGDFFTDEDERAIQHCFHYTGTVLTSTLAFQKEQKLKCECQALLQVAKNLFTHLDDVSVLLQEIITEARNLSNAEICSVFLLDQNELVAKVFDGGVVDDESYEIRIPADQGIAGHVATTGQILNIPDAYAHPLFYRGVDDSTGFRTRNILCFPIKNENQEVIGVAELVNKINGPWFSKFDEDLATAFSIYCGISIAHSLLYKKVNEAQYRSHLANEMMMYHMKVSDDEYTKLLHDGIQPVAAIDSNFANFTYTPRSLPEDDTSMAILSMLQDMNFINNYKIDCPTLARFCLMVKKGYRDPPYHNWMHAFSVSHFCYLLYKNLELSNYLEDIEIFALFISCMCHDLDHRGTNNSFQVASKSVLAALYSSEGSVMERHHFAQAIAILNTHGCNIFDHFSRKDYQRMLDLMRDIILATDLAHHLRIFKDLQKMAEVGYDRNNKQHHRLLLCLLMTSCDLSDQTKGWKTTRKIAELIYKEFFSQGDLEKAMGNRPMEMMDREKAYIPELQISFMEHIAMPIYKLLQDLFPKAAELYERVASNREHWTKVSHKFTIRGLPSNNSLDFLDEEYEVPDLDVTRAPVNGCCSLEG

[5] = human recombinant PDE2A, 10 μM cGMP substrate, read-out: hPDE2A pIC50 (converted)
[6] = read-out: hPDE2A pIC50 (converted)
[7] = human clone (h), default, read-out: hPDE10A2 Emax
[8] = human clone (h), default, read-out: hPDE10A2 pIC50 (converted)
[9] = human clone by default (no (r) mark), read-out: hPDE10A2 or rPDE10A2 Emax
[10] = human clone by default (no (r) mark), read-out: hPDE10A2 or rPDE10A2 pIC50 (converted)

T2 sequence (Q14432 whole entry): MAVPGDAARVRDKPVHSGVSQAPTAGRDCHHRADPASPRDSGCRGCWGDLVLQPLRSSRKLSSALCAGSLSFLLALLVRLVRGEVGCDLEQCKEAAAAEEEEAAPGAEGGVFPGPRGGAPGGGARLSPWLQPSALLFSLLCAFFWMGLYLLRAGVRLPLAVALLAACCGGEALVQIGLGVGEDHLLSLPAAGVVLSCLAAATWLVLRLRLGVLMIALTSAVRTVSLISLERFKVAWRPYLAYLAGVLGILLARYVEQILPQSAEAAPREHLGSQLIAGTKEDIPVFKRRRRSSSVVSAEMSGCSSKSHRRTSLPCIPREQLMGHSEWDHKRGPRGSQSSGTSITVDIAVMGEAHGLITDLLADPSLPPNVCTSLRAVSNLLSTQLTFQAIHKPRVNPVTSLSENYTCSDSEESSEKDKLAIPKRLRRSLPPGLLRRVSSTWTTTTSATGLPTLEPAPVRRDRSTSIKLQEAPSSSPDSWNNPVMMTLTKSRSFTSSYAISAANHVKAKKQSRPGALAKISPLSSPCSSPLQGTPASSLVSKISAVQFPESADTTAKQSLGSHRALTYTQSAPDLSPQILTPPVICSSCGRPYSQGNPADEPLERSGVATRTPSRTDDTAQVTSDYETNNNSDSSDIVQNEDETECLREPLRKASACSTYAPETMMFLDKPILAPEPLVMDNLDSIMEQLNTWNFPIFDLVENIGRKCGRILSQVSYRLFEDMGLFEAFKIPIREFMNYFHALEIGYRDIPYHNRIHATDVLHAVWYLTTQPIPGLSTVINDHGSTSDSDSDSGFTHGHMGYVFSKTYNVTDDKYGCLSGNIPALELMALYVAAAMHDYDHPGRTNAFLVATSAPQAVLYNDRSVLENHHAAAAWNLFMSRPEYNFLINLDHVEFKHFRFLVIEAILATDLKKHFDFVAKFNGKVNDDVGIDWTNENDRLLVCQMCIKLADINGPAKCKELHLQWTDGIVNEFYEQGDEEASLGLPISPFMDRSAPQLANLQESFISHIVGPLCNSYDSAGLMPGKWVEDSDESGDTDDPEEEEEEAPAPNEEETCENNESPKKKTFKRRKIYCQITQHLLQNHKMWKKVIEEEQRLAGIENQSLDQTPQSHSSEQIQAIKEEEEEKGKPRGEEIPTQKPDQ
T3 sequence (Q9Y233 267-1055): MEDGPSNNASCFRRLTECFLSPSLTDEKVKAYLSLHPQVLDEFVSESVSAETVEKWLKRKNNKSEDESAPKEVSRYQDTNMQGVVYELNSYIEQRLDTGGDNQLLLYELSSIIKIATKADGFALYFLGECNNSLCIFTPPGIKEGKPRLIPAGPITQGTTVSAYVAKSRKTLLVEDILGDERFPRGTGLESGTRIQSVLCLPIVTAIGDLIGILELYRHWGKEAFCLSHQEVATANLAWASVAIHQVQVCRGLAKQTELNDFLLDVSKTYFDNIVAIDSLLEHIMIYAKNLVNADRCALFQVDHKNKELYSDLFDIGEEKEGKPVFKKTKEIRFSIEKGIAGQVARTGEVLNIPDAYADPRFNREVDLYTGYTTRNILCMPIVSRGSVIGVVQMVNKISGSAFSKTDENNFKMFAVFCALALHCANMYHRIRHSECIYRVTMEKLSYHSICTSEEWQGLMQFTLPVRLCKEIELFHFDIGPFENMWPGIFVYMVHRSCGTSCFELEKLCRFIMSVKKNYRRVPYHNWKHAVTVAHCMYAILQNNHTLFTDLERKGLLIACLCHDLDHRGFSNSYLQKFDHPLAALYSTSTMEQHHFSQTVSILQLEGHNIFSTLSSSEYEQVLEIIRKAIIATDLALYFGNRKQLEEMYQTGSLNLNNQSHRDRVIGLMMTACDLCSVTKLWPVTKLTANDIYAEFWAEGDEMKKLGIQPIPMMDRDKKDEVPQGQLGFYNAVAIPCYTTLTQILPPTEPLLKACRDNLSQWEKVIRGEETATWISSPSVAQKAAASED
T1 sequence (O00408 whole entry): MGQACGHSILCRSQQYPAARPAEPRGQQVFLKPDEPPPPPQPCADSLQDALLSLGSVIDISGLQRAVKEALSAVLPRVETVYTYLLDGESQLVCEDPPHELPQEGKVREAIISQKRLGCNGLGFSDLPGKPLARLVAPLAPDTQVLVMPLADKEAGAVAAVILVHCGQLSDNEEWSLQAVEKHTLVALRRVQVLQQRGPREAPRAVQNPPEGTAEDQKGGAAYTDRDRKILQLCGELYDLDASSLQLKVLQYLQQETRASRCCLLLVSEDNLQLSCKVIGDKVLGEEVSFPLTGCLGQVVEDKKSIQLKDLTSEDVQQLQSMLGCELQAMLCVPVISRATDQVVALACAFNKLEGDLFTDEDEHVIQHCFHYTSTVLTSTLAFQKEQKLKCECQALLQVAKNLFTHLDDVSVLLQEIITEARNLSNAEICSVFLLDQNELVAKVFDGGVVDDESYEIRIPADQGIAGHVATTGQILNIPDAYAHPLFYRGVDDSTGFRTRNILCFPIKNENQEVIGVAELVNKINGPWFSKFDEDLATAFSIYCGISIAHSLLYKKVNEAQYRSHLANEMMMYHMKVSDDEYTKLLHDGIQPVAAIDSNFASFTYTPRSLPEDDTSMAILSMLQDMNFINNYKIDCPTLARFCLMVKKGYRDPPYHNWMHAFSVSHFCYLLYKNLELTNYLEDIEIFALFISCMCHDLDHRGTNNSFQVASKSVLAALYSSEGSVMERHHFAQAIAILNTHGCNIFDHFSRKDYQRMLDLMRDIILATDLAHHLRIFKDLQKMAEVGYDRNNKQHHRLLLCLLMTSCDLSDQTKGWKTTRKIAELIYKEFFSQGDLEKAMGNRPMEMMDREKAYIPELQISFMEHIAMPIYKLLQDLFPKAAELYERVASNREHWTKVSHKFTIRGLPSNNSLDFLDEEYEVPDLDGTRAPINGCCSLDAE

SMILES | IC50 [1, 5] | Emax ([1]; human recombinant PDE2A) | Emax [1] | IC50 [1, 6] | IC50 [2] | Emax ([2]; read-out: Emax) | Emax [3, 7] | IC50 [3, 8] | receptor occupancy at 10 mg/kg ([4]; po, route PO (oral)) | receptor occupancy at 10 mg/kg ([4]; sc, route SC (subcutaneous)) | IC50 ([1]; hPDE2A pIC50) | IC50 ([1]; hPDE2A pIC50, human recombinant PDE2A, 10 μM cGMP substrate) | hPDE2A Emax [1] | Emax [2] | Emax [3, 9] | IC50 [3, 10] | ED50 ([4]; po, read-out: PDE Occupancy ED50)
C[C@@H]1CCN(C(=O)c2ccc(Cl)c(OC(F)F)c2)C[C@H]1c1cc(C(F)F)nc2ncnn12 [Compound 121] | 1.78 nM | 99% | 99% | 1.78 nM | 0.513 µM | 95% | 96% | 58.9 nM | -15% | – | – | – | – | – | – | – | –
COc1cc(C(=O)N2CC[C@@H](C)[C@H](c3cc(C(F)F)nc4ncnn34)C2)nc2ccccc12 [Compound 125] | 2.09 nM | 100% | 100% | 2.09 nM | 0.589 µM | 96% | 96% | 589 nM | -16% | – | – | – | – | – | – | – | –
COc1ncc(C(=O)N2CC[C@@H](C)[C@H](c3cc(C(F)F)nc4ncnn34)C2)cc1Cl [Compound 134] | 3.16 nM | 101% | 101% | 3.16 nM | 2.24 µM | 84% | 100% | 158 nM | 21% | – | – | – | – | – | – | – | –
C[C@@H]1CCN(C(=O)c2ccn(C)n2)C[C@H]1c1cc(C(F)F)nc2ncnn12 [Compound 139] | 28.8 nM | 99% | 99% | 28.8 nM | > 10 µM | 20% | 78% | 2400 nM | -11% | – | – | – | – | – | – | – | –
C[C@@H]1CCN(C(=O)c2ccc(Cl)c(C(F)(F)F)c2)C[C@H]1c1cc(C(F)F)nc2ncnn12 [Compound 169] | 3.72 nM | 98% | 98% | 3.72 nM | 1.78 µM | 82% | 98% | 178 nM | 3% | – | – | – | – | – | – | – | –
C[C@@H]1CCN(C(=O)c2cc3c(nc2Cl)CCCC3)C[C@H]1c1cc(C(F)F)nc2ncnn12 [Compound 170] | 4.57 nM | 100% | 100% | 4.57 nM | 2.14 µM | 84% | 84% | 1290 nM | 1% | – | – | – | – | – | – | – | –
Cc1nocc1C(=O)N1CC[C@@H](C)[C@H](c2cc(C(F)F)nc3ncnn23)C1 [Compound 184] | 28.2 nM | 100% | 100% | 28.2 nM | > 10 µM | 17% | 75% | 2750 nM | -2% | – | – | – | – | – | – | – | –
C[C@@H]1CCN(C(=O)c2ccc(F)c(O)c2)C[C@H]1c1cc(C(F)F)nc2ncnn12 [Compound 186] | 10.7 nM | 100% | 100% | 10.7 nM | 6.03 µM | 69% | 95% | 339 nM | – | 8% | – | – | – | – | – | – | –
C[C@@H]1CCN(C(=O)c2noc3ccccc23)C[C@H]1c1cc(C(F)F)nc2ncnn12 [Compound 187] | 17.8 nM | 99% | 99% | 17.8 nM | 3.47 µM | 74% | 95% | 427 nM | – | 0% | – | – | – | – | – | – | –
Cc1nc2cc(C(=O)N3CC[C@@H](C)[C@H](c4cc(C(F)F)nc5ncnn45)C3)ccc2o1 [Compound 188] | 8.51 nM | 99% | 99% | 8.51 nM | 1.55 µM | 87% | 98% | 209 nM | – | 2% | – | – | – | – | – | – | –
C[C@@H]1CCN(C(=O)c2cc(F)cc(C#N)c2)C[C@H]1c1cc(C(F)F)nc2ncnn12 [Compound 190] | – | – | 100% | – | > 10 µM | 39% | 96% | 158 nM | 1% | – | 10.2 nM | 10.2 nM | – | – | – | – | –
C[C@@H]1CCN(C(=O)c2ccc(F)c(OC(F)F)c2)C[C@H]1c1cc(C(F)F)nc2ncnn12 [Compound 193] | 5.89 nM | 100% | 100% | 5.89 nM | 3.47 µM | 76% | 98% | 138 nM | -11% | -3% | – | – | – | – | – | – | –
COc1cc(C(=O)N2CC[C@@H](C)[C@H](c3cc(C(F)F)nc4ncnn34)C2)ccc1F [Compound 195] | 4.47 nM | 98% | 98% | 4.47 nM | 5.62 µM | 70% | 93% | 372 nM | -7% | -13% | – | – | – | – | – | – | –
COc1ccc(C(=O)N2CC[C@@H](C)[C@H](c3cc(C(F)F)nc4ncnn34)C2)cn1 [Compound 196] | 23.4 nM | 99% | 99% | 23.4 nM | 4.9 µM | 68% | 92% | 562 nM | 0% | – | – | – | – | – | – | – | –
C[C@@H]1CCN(C(=O)c2cccc(C#N)c2)C[C@H]1c1cc(C(F)F)nc2ncnn12 [Compound 197] | 10.2 nM | 98% | 98% | 10.2 nM | > 10 µM | 42% | 96% | 209 nM | 8% | – | – | – | – | – | – | – | –
Cc1cc(C(=O)N2CC[C@H](C)[C@@H](c3cc(C(F)F)nc4ncnn34)C2)cc(C)n1 [Compound 220] | – | – | – | – | > 10 µM | – | – | – | -8% | – | 302 nM | – | 54 | 8% | 41% | > 10000 nM | > 80 mg/kg
Cc1nc(C(=O)N2CC[C@H](C)[C@H](c3cc(C(F)F)nc4ncnn34)C2)ccc1F [Compound 223] | 195 nM | 98% | 98% | 195 nM | > 10 µM | 19% | 71% | 3470 nM | 19% | – | – | – | – | – | 71% | 3470 nM | –
C[C@@H]1CCN(C(=O)c2ccc3scnc3c2)C[C@H]1c1cc(C(F)F)nc2ncnn12 [Compound 227] | 2.19 nM | 101% | 101% | 2.19 nM | 0.38 µM | 95% | 98% | 45.7 nM | – | 18% | – | – | – | – | 98% | 45.7 nM | –
C[C@@H]1CCN(C(=O)c2ccc(O)c(C#N)c2)C[C@H]1c1cc(C(F)F)nc2ncnn12 [Compound 231] | 1.35 nM | 97% | 97% | 1.35 nM | 9.12 µM | 57% | 100% | 19.5 nM | – | -13% | – | – | – | – | 100% | 19.5 nM | –
